Molecules are shown by their SMILES.

Here are results for 35 molecules from PMC6895048, “4,5-Disubstituted 1,2,3-triazoles: Effective Inhibition of Indoleamine 2,3-Dioxygenase 1 Enzyme Regulates T cell Activity and Mitigates Tumor Growth” (Scientific Reports, 2019).

Assay [1] deals with T1, purified human TDO enzyme (Homo sapiens, UniProt P48775).
T1 construct: 6xHis (N); made in house; host or cells: Escherichia coli BL21 (DE3) (pET 28a vector)
Put plainly: TDO inhibition assay by the spectrometric method. The format is biochemical. The conditions noted are these: spectrophotometric. The protocol:
Both IDO1 and TDO inhibition assays were performed according to the reported procedures[26]–[30],[50],[51]. The solubility of the compounds in water was either moderate or poor. […] In the assay system, the minimum and maximum amount of DMSO was 0.02% and 2%, respectively. The standard reaction mixture (500 μL) containing KPB (100 mM, pH 6.5 for IDO1 enzyme and 50 mM, pH 8.0 for TDO enzyme), sodium ascorbate (20 mM), methylene blue (10 µM), catalase (240 nM, from bovine liver), L-Trp (150 µM), purified enzyme (40 nM for IDO1 and 25 nM for TDO), DMSO (0.05%, v/v), Triton-X 100 (0.01%, v/v) and inhibitors was incubated at 37 °C for 1 hour. The concentration of the inhibitors was varied from 100 µM to 32 nM by serial dilution technique. Then, the reaction was quenched with 100 µL of 30% (w/v) trichloroacetic acid and was incubated for further 15 minutes at 65 °C. After that, 2% (w/v) pDMAB was used to quantify the amount of kynurenine formation. The absorbance of the reaction mixture was recorded by UV-Vis spectrophotometer at 480 nm. The Km = 59.76 µM and Kcat = 6.18 sec^−1.

Assay [2] addresses T2, purified human IDO1 enzyme (Homo sapiens, UniProt P14902).
T2 construct: made in house; host or cells: Escherichia coli M15 (pQE30 vector with pREP4 plasmid)
The assay can be described thus: IDO1 inhibition assay by the spectrometric method (pDMAB). The format is biochemical. Particulars: for IC50: purified human IDO1, spectrophotometric, mean of three independent assays, read-out: hIDO1 IC50. The protocol:
Both IDO1 and TDO inhibition assays were performed according to the reported procedures[26]–[30],[50],[51]. […] In the assay system, the minimum and maximum amount of DMSO was 0.02% and 2%, respectively. […] The concentration of the inhibitors was varied from 100 µM to 32 nM by serial dilution technique. Then, the reaction was quenched with 100 µL of 30% (w/v) trichloroacetic acid and was incubated for further 15 minutes at 65 °C. After that, 2% (w/v) pDMAB was used to quantify the amount of kynurenine formation. The absorbance of the reaction mixture was recorded by UV-Vis spectrophotometer at 480 nm.

T2 sequence (P14902 whole entry): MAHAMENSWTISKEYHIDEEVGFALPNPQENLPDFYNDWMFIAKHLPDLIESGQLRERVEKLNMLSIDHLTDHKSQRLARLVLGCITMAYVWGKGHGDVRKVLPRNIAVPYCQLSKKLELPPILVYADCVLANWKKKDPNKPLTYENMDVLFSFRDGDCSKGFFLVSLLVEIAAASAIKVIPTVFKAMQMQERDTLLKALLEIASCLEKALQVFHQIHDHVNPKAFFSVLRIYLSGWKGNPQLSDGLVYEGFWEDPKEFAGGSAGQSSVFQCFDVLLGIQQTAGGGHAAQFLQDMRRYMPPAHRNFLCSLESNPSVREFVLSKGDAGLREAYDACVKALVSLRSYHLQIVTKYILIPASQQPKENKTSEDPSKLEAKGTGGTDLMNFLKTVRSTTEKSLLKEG
T1 sequence (P48775 whole entry): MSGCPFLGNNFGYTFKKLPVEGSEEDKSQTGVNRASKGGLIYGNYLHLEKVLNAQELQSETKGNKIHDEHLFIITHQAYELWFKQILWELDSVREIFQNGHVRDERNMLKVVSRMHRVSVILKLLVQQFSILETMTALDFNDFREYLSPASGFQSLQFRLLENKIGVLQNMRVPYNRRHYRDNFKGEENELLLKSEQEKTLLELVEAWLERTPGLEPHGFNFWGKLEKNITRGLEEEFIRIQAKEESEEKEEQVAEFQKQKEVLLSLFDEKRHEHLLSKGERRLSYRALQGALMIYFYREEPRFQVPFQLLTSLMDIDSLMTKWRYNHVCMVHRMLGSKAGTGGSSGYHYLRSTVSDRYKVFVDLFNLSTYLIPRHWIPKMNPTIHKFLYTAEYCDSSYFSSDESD

A word on the inhibition: it is the drop in the measured response relative to a control, in per cent. What is called IC50 is the point on the concentration scale where inhibition reaches its midpoint. `c1ccc(-c2nn[nH]c2-c2ccccc2)cc1` [Compound 1a, 4,5-diphenyl 2H-1,2,3-triazole]: the inhibition at 0.032 µM in assay [1] (32 nM) was found to be 8%. The inhibition at 0.16 µM in assay [1] (160 nM) turned out to be 10%. In addition, in assay [1] (800 nM), at 0.8 µM the inhibition was 19%. This molecule came in with an inhibition at 4 µM in assay [1] (4 µM) of 28%. At 20 µM the inhibition in assay [1] (20 µM) was 40%. The molecule further returned an inhibition at 100 µM in assay [1] (100 µM) of 59%. In addition, in assay [2], the IC50 was 90 ± 2.94 µM.

As for `CCOC(=O)c1n[nH]nc1-c1ccc(F)c(Br)c1` [2 l], the IC50 in assay [2] was 3.04 ± 0.091 µM.

In the case of `NC(=O)c1n[nH]nc1-c1ccc(F)c(Br)c1` [3 l], the IC50 in assay [2] stood at 1.993 ± 0.005 µM.

`O=C(N/C(Cc1ccc(F)c(F)c1)=N\O)c1n[nH]nc1-c1ccc(F)c(F)c1` [Compound 4h]: the IC50 in assay [2] came to 3.81 ± 0.24 µM.

Consider `NC(=O)c1n[nH]nc1-c1cccc(Br)c1` [Compound 3e], for which the half-inhibitory concentration (IC50) in assay [2] is 26.7 ± 2.2 µM.

Regarding `CCOC(=O)c1n[nH]nc1-c1cccc(Br)c1` [Compound 2e], the IC50 in assay [2] was 2.981 ± 0.012 µM.

With `Cc1ccc(-c2n[nH]nc2-c2ccc(C)cc2)cc1` [Compound 1b], the IC50 in assay [2] was determined as 54.9 ± 0.757 µM.

`Brc1ccc(-c2n[nH]nc2-c2ccc(Br)cc2)cc1` [Compound 1h]: the IC50 in assay [2] amounted to 40.7 ± 2.7 µM.

On to `NC(=O)c1n[nH]nc1-c1ccc(F)cc1` [Compound 3f], for which the IC50 in assay [2] is 2.94 ± 0.034 µM.

Regarding `Fc1ccc(-c2n[nH]nc2-c2ccc(F)cc2)cc1` [Compound 1f], the IC50 in assay [2] was 25.2 ± 1.7 µM.

On to `NC(=O)c1n[nH]nc1-c1ccc(F)c(Cl)c1` [Compound 3k], for which, in assay [2], the IC50 amounted to 1.83 ± 0.126 µM.

`CCOC(=O)c1n[nH]nc1-c1ccc(Cl)cc1` [Compound 2g]: the “% of Enzyme inhibition (TDO)” value was 16% in assay [1] (32 nM); 18% in assay [1] (160 nM); 23% in assay [1] (800 nM); 28% in assay [1] (4 µM); 36% in assay [1] (20 µM); 46% in assay [1] (100 µM). In assay [2], the IC50 was found to be 0.392 ± 0.084 µM.

In the case of `NC(=O)c1n[nH]nc1-c1ccc(Cl)cc1` [Compound 3g], the “% of Enzyme inhibition (TDO)” value was 5% in assay [1] (32 nM); 8% in assay [1] (160 nM); 15% in assay [1] (800 nM); 27% in assay [1] (4 µM); 35% in assay [1] (20 µM); 39% in assay [1] (100 µM). Further, the IC50 in assay [2] amounted to 0.624 ± 0.023 µM.

Regarding `NC(=O)c1n[nH]nc1-c1cccc(Cl)c1` [Compound 3d], the IC50 in assay [2] came out at 2.69 ± 0.055 µM.

On to `CCOC(=O)c1n[nH]nc1-c1ccc(F)c(Cl)c1` [Compound 2k], for which the IC50 in assay [2] turned out to be 1.69 ± 0.102 µM.

On to `O=C(N/C(Cc1ccccc1)=N\O)c1n[nH]nc1-c1ccc(F)c(F)c1` [Compound 4g], for which the IC50 in assay [2] came to 0.88 ± 0.018 µM.

On to `Fc1ccc(-c2n[nH]nc2-c2ccc(F)c(Cl)c2)cc1Cl` [Compound 1k], for which the IC50 in assay [2] is 6.91 ± 0.099 µM.

For the molecule `Brc1cccc(-c2n[nH]nc2-c2cccc(Br)c2)c1` [Compound 1e], the IC50 in assay [2] is 21.9 ± 1.27 µM.

Regarding `CCOC(=O)c1n[nH]nc1-c1ccc(Br)cc1` [Compound 2h], in assay [2], the IC50 worked out at 18.4 ± 1.68 µM.

With `CC(C)(C)OC(=O)NCCNC(=O)c1n[nH]nc1-c1ccc(F)c(F)c1` [Compound 4f], the IC50 in assay [2] amounted to 2.74 ± 0.195 µM.

For `Fc1cccc(-c2n[nH]nc2-c2cccc(F)c2)c1` [Compound 1c], the IC50 in assay [2] was 4.99 ± 0.057 µM.

Turning to `NC(=O)c1n[nH]nc1-c1ccc(Br)cc1` [Compound 3h], in assay [2], the IC50 worked out at 5.156 ± 0.011 µM.

Regarding `CC(=O)Nc1ccc(/C(=N/O)NC(=O)c2n[nH]nc2-c2ccc(F)c(F)c2)cc1` [Compound 4j], in assay [2], the IC50 came out at 2.36 ± 0.308 µM.

As to `O=C(NC1C2CC3CC(C2)CC1C3)c1n[nH]nc1-c1ccc(Cl)c(Cl)c1` (stereo not drawn) [Compound 4e], the IC50 in assay [2] worked out at 18.7 ± 0.398 µM.

Regarding `Clc1cccc(-c2n[nH]nc2-c2cccc(Cl)c2)c1` [Compound 1d], the IC50 in assay [2] came to 2.51 ± 0.06 µM.

Consider `Cc1ccc(-c2n[nH]nc2C(N)=O)cc1` [Compound 3b], for which, in assay [2], the IC50 was determined as 7.08 ± 0.691 µM.

Take `Clc1ccc(-c2n[nH]nc2-c2ccc(Cl)c(Cl)c2)cc1Cl` [Compound 1j]: the IC50 in assay [2] was determined as 12.9 ± 0.191 µM.

Take `CCOC(=O)c1n[nH]nc1-c1cccc(Cl)c1` [Compound 2d]: in assay [2], the half-maximal inhibitory concentration (IC50) stood at 2.55 ± 0.033 µM.

As to `Clc1ccc(-c2n[nH]nc2-c2ccc(Cl)cc2)cc1` [Compound 1g], the IC50 in assay [2] stood at 3.21 ± 0.1 µM.

In the case of `Fc1ccc(-c2n[nH]nc2-c2ccc(F)c(Br)c2)cc1Br` [1 l], in assay [2] (in comparison with lead compound 1a), the “fold stronger IDO1 inhibitory activity than 1a” value is 46 fold. Besides, the IC50 in assay [2] stood at 1.94 ± 0.083 µM.

Take `Fc1ccc(-c2n[nH]nc2-c2ccc(F)c(F)c2)cc1F` [Compound 1i]: the IC50 in assay [2] was 7.72 ± 0.761 µM.

`CCOC(=O)c1n[nH]nc1-c1ccc(C)cc1` [Compound 2b]: the IC50 in assay [2] was found to be 1.7 ± 0.061 µM.

For `NC(=O)c1n[nH]nc1-c1cccc(F)c1` [Compound 3c], in assay [2], the IC50 amounted to 6.61 ± 0.355 µM.

`CCOC(=O)c1n[nH]nc1-c1ccc(F)cc1` [Compound 2f]: in assay [2], the IC50 was 8.09 ± 0.21 µM.

`CCOC(=O)c1n[nH]nc1-c1cccc(F)c1` [Compound 2c]: the IC50 in assay [2] was 31.4 ± 4.21 µM.
